The results in this text go back to patent US6869968B1, “2-(3H)-oxazolone derivatives and their use as COX-2 inhibitors” (Allmirall Prodesfarma S.A., priority 1996, dated 2005).

Each structure is given as a SMILES string.

In one series the target is T1, Cyclooxygenase-1 (COX-1) (Homo sapiens, UniProt P23219).
T1 construct: Platelets were isolated from peripheral human blood obtained from healthy donors; endogenous in cells; host or cells: human platelets from peripheral blood of healthy donors
Nature of the series: Inhibition of cyclooxygenase-1 (COX-1) activity in human platelets (thromboxane B2 ELISA). As to conditions: 50 μM arachidonic acid, mean of three independent experiments, read-out: COX-1 (μM), results expressed as IC50 values. The class given is cell-based. As to the method:
(§1) For the whole-cell COX-1 and COX-2 assays, stock solutions (10^−3M) of the drugs were dissolved in 50% dimethylsulphoxide, and further dilutions were done with medium.
Inhibition of Cyclooxygenase-1 (COX-1) Activity in Human Platelets
The blood was anticoagulated with 2 mg/ml sodium EDTA and centrifuged at 180 g for 10 min. at room temperature to obtain platelet-rich plasma. The platelet-rich plasma was centrifuged at 2000 g for 20 min. at 4° C. to obtain a platelet pellet. Cells were washed twice with PBS without […] and resuspended to 5×10^7 cells with Hank's balanced salt solution (HBSS). Platelets (10^7) were preincubated with the drugs for 15 min. at 37° C. and incubations were continued for a further 15 min. in the presence of 50 μM arachidonic acid. The production of tromboxane B2 in response to arachidonic acid was measured in the supernatants using a solid-phase immunoassay (ELISA). The results are expressed as the mean of the IC50 values obtained from three independent experiments.
(§2) For the whole-cell COX-1 and COX-2 assays stock solutions (10^−3 M) of the drugs wer dissolved in 50% dimethylsulphoxide, and further dilutions were done with medium.
A general note: An ELISA detects its analyte on a solid surface through an enzyme-linked reagent.

A further series has as its target T2, Cyclooxygenase-2 (COX-2) (Homo sapiens, UniProt P35354).
T2 construct: Quiescent HUV-EC-C cells were treated with 50 nM TPA for 6 h at 37° C. to induce the COX-2 isoenzyme; endogenous in cells; host or cells: HUV-EC-C human endothelial cell line, passage 19-27, induced with 50 nM TPA/PMA
T2 sequence (P35354 18-604): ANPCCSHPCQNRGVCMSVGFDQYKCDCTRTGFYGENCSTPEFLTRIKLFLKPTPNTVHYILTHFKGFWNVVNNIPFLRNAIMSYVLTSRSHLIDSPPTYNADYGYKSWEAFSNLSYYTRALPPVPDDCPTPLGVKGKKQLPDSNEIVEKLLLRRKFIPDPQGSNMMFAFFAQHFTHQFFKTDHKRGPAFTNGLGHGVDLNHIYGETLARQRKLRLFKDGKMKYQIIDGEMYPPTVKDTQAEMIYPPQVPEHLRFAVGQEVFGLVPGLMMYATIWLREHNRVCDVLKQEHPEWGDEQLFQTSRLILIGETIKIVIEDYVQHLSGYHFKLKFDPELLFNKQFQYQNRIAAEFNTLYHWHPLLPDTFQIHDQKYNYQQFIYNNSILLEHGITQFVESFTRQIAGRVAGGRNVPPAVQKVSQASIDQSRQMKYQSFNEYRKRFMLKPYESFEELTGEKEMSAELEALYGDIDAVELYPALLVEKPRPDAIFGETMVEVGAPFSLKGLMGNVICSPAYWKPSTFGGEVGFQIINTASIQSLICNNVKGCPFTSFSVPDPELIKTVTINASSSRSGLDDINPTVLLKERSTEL
As to the kind of experiment: Inhibition of cyclooxygenase-2 (COX-2) activity in HUV-EC-C cell line (prostaglandin E2 ELISA). The class given is cell-based. As to conditions: for IC50: PMA/TPA-induced HUV-EC-C cells, 50 μM arachidonic acid, mean of three independent experiments, read-out: COX-2 (μM), results expressed as IC50 values; for Ratio COX-1:COX-2: ratio of IC50 COX-1 (platelets) to IC50 COX-2 (HUV-EC-C). As to the method: as §1
Inhibition of Cyclooxygenase-2 (COX-2) Activity in HUV-EC-C Cell Line
HUV-EC-C cells were grown on Ham's F12K medium containing 10% fetal bovine serum, 100 μg/ml heparin and 50 μg/ml Endothelial Cell Growth Supplement (ECGS). Experiments were performed with HUV-EC-C passage 19-27. Cells (2×10^4) were seeded onto 96-well plates and made quiescent by removing the growth factor for 48 h before the initiation of the experiments. Quiescent HUV-EC-C cells were treated with 50 nM TPA for 6 h at 37° C. to induce the COX-2 isoenzyme. The cultured medium was then changed and cells were incubated with drugs for 30 min. at 37° C. Arachidonic acid (50 μM) was then added, and the cells were incubated for a further 30 min. The production of prostaglandine E2 in response to arachidonic acid was measured in the supernatants using a solid-phase immunoassay (ELISA). The results are expressed as the mean of the IC50 values obtained from three independent experiments.
as §2

For series [1], the system named is adjuvant arthritis (Mycobacterium tuberculosis in paraffin oil, hind paw). As to the kind of experiment: Anti-inflammatory activity (adjuvant arthritis), hind paw volume. The class given is in vivo, Male Wistar rats. As to conditions: paw volume on day 21. The method, then:
Anti-Inflammatory Activity (Adjuvant Arthritis)
Male Wistar rats weighing 175-200 g with free access to food and water were used. On day 0, the animals received an intraplantar injection of a suspension of Mycobacterium tuberculosis in paraffin oil (0.5 mg/rat) on the left hind paw. A group of 8 nonarthritic control rats were injected with paraffin oil alone. On days 11 and 14 after induction of arthritis, the volume of the hind paw of each rat was measured using a water plehysmograph. Animals whose paw volumes increased during that time were selected. Rats were distributed into groups of 8 having equal mean paw volumes and an approximately equal standard deviation.
Test compounds were administered p.o. once daily for 7 days (days 14-20). Nonarthritic and arthritic control rats received vehicle alone for 7 days. The hind paw volumes were measured 20 h after the last dose (on day 21). The body weight was determined every second day.
The results are expressed as the percentage of inhibition of inflammation (paw volume) for each treatment group, considering both the arthritic and nonarthritic vehicle controls. The ANOVA test was used for statistical studies.
(§3) For the in vivo assays all drugs were administered in vehicle (0.1% Tween 80+0.5% methylcellulose in distilled water) in a volume of 5 ml/kg.

The next series concerns glandular stomach. Nature of the series: Ulcerogenic activity (gastric lesion index). Format: in vivo, Male Wistar rat. The conditions noted are these: oral route, fasted rats, sacrificed 6 hours after dosage. As to the method:
Animals: Male Wistar (Interfauna, U.K., Ltd.) weighing about 120-150 g were used. They were maintained on a 12:12 hour light-dark cycle (lights on at 7:00 a.m.) at room temperature (22±1° C.). The animals were fasted for 18 h prior to the experiment with free access to drinking water.
Procedure: Experiments were performed from 9 to 17 h. The compounds were administered by-the oral route and the animals were sacrificed 6 hours after drugs dosage. The stomach of each rat was removed, opened and gently washed. The macroscopic severity of the erosions was assessed using a parametric scale (Cosen and Mazure), evaluating the number and size of the ulcers in the glandular stomach. Thus, each stomach was classified with an index lesion and compared with the gastrolesivity induced by ketorolac 100 mg/kg p.o., used as a positive standard. The treatments were randomized in each experiment.
as §3

Setting [2] is: 1 mg/kg p.o. once daily for 7 days (days 14-20).

T1 sequence (P23219 24-599): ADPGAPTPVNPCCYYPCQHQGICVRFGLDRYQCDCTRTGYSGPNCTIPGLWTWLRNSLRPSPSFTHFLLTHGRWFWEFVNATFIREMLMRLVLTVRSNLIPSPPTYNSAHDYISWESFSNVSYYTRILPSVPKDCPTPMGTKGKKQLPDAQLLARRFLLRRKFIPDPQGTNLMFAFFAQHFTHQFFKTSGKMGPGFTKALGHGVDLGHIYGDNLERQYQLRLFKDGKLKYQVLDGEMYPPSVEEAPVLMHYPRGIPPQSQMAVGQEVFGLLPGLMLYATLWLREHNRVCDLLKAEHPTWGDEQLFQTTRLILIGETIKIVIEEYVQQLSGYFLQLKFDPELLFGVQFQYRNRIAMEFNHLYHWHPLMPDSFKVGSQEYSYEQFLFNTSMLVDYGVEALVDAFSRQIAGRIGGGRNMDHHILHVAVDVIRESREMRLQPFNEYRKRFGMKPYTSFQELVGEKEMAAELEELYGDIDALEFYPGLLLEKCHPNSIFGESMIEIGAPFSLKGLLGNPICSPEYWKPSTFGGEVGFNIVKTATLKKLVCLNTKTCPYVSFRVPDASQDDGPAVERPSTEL

Broadly, the IC50 is the concentration needed to halve the response being measured. Consider `CS(=O)(=O)c1ccc(-c2coc(=O)n2-c2ccc(F)cc2)cc1` [Compound 6, 3-(4-fluorophenyl)-4-(4-methylsulfonylphenyl)-2-(3H)-oxazolone], for which the IC50 on Cyclooxygenase-1 (COX-1) stood at 127 µM. Besides, at Cyclooxygenase-2 (COX-2), the IC50 amounted to 3.2 µM and the “Ratio COX-1:COX-2” value was 39.6. The “% Inhibition (dose, mg/kg)” value in series [1] (3 mg/kg p.o. once daily for 7 days (days 14-20)) is 52 (3) %. Moreover, the “UD50” value in the series on glandular stomach is over 100 mg/kg.
The melting point is the temperature of the solid-liquid transition. As for `CS(=O)(=O)c1ccc(-c2coc(=O)n2-c2ccc(Br)cc2)cc1` [Compound 9, 3-(4-bromophenyl)-4-(4-methylsulfonylphenyl)-2-(3H)-oxazolone], the melting point was in the range of 217 to 219 °C. Further, the IC50 on Cyclooxygenase-1 (COX-1) was over 100 µM. For the same compound, on Cyclooxygenase-2 (COX-2), the IC50 stood at 0.11 µM and the “Ratio COX-1:COX-2” value is over 909.
Regarding `NS(=O)(=O)c1ccc(-c2coc(=O)n2-c2ccc(F)cc2)cc1` [Compound 18, 3-(4-fluorophenyl)-4-(4-aminosulfonylphenyl)-2-(3H)-oxazolone], the IC50 at Cyclooxygenase-1 (COX-1) came out at 1.5 µM. At Cyclooxygenase-2 (COX-2), the IC50 stood at 0.53 µM and the “Ratio COX-1:COX-2” value was 2.8. Besides, the “% Inhibition (dose, mg/kg)” value in series [1] (setting [2]) is on record as 63 (1) %.
Take `NS(=O)(=O)c1ccc(-c2coc(=O)n2-c2ccc(Cl)c(Cl)c2)cc1` [Compound 20, 3-(3,4-dichlorophenyl)-4-(4-aminosulphonylphenyl)-2-(3H)-oxazolone]: at Cyclooxygenase-1 (COX-1), the concentration for half-maximal inhibition (IC50) turned out to be 3.5 µM. In addition, at Cyclooxygenase-2 (COX-2), the IC50 turned out to be 0.06 µM and the “Ratio COX-1:COX-2” value came out at 58.3. In addition, in series [1] (setting [2]), the “% Inhibition (dose, mg/kg)” value is reported as 67 (1) %. In addition, the “UD50” value in the series on glandular stomach is reported as over 100 mg/kg.
Taken in the same sequence, the figures for `NS(=O)(=O)c1ccc(-c2coc(=O)n2-c2ccccc2F)cc1` [Compound 26, 3-(2-fluorophenyl)-4-(4-aminosulphonylphenyl)-2-(3H)-oxazolone] were 22.6 µM, 0.0096 µM, 2354, 65 (1) % and over 100 mg/kg.
On the same counts, the results for `NS(=O)(=O)c1ccc(-c2coc(=O)n2-c2ccc(F)cc2F)cc1` [Compound 27, 3-(2,4-difluorophenyl)-4-(4-aminosulphonylphenyl)-2-(3H)-oxazolone] are 8.9 µM, 0.1 µM, 89, 64 (1) % and over 100 mg/kg.
Take `COc1ccc2c(c1)c(CC(=O)O)c(C)n2C(=O)c1ccc(Cl)cc1` [Indomethacin, 1-(4-chlorobenzoyl)-5-methoxy-2-methylindole-3-acetic acid, reference compound]: in series [1] (setting [2]), the “% Inhibition (dose, mg/kg)” value is 64 (1) %. Also, the “UD50” value in the series on glandular stomach is recorded as 17 mg/kg.
